Laboratory results: US11912660B2, “S6K1 protein kinase inhibitors as cancer therapeutics” (Xavier University of Louisiana, priority 2020, dated 2024)
pIC50: −log10 of the molar value. Where two headings read alike, the source gives them in different places.

Assays:
RPS6K1 [1] = target: T1, RPS6K1 (Homo sapiens (Human), UniProt P23443); experiment: High-throughput screening and IC50 determination for inhibition of RPS6K1 (FRET based assay by ThermoFisher); type: biochemical; details: dose response curve
T1 sequence (P23443 whole entry): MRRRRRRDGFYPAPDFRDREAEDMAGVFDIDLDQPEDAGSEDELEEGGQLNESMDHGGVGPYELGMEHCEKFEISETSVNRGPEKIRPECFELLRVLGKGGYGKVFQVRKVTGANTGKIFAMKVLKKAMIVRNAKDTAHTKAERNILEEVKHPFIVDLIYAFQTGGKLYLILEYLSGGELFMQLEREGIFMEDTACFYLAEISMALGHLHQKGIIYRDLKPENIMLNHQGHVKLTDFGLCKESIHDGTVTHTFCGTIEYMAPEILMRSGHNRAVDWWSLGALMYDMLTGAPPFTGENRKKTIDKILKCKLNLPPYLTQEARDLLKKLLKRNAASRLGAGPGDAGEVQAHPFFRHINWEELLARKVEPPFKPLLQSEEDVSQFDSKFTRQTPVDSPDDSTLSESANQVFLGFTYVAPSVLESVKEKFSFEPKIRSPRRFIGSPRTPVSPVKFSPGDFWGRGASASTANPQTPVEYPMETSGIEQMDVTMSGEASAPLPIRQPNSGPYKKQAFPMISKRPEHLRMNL
Excerpt: These three compounds were then subjected to IC50 value determination (dose response curve) using the same FRET based assay by ThermoFisher (Table 5).

[2] = test system: ER positive breast cancer cell line MCF7; experiment: MTT assay growth inhibition; type: cell-based; details: FIG. 1B
Excerpt: (§1) Cell viability assays used the methods outlined in an earlier publication: Identification of New Mono/Dihydroxynaphthoquinone as Lead Agents that Inhibit the Growth of Refractive and Triple-negative Breast Cancer Cell lines. Schroeder, R.; Sfondouris, M.; Goyal, N.; Komati, R.; Weerathunga, A.; Gettridge, C.; Stevens, C. L. K.; Jones, F. E.; Sridhar, J. ACS Omega, 2019 Jun 19. 4(6):10610-10619.
(§2) RPS6K1 is known to play a critical role in several cancers including HER2 positive breast cancer, ER positive breast cancer, prostate cancer and small cell lung cancer. To verify whether RPS6K1 inhibitors of the instant disclosure could inhibit growth of these types of cancers, MTT assays were performed using the HER2 positive breast cancer cell line SKBR3, ER positive breast cancer cell line MCF7, and the prostate cancer cell line DU-145. The MTT assay is a colorimetric assay for assessing cell metabolic activity. NAD(P)H-dependent cellular oxidoreductase enzymes may, under defined conditions, reflect the number of viable cells present. These enzymes are capable of reducing the tetrazolium dye MTT 3-(4,5-dimethylthiazol-2-yl)-2,5-diphenyltetrazolium bromide to its insoluble formazan, which has a purple color.

[3] = test system: HER2 positive breast cancer cell line SKBR3; experiment: MTT assay growth inhibition; type: cell-based; details: for pIC50: Homo sapiens; for growth inhibition: SKBR3, MTT, FIG. 1A
Excerpt: as §1, §2

[4] = test system: prostate cancer cell line DU-145; experiment: MTT assay growth inhibition; type: cell-based; details: DU-145, MTT, FIG. 1C
Excerpt: as §1, §2

RPS6K1 [5] = target: T1, RPS6K1; experiment: High-throughput screening and IC50 determination for inhibition of RPS6K1 (FRET based assay by ThermoFisher); type: biochemical; details: table head prints 10 µM; text says 10 μM concentration
[6] = SK-BR-3, SKBR3 breast cancer cell line, MTT, read-out: IC50 values of growth inhibition

| pIC50 (RPS6K1 [1]) | RPS6K1% inhibition at 10 µM compound concentration (RPS6K1 [5]) | pIC50 [3, 6] | SMILES | growth inhibition [2] | pIC50 ([3]; SK-BR-3, read-out: IC50 values of growth inhibition) | growth inhibition [3] | growth inhibition [4] |
| --- | --- | --- | --- | --- | --- | --- | --- |
| 5.46 | 71% | 5.48 | Nc1cc(NC(=O)c2ccccc2)cc2c1C(=O)NC2=O [RJ-19] | not as effective |  | showed inhibition |  |
| < 5.56 | 86% | 5.72 | Nc1cc(NC(=O)c2ccccc2Br)cc2c1C(=O)NC2=O [RJ-22] | excellent growth inhibition |  | excellent growth inhibition | excellent growth inhibition |

| SMILES | pIC50 (RPS6K1 [1]) | RPS6K1% inhibition at 10 µM compound concentration (RPS6K1 [5]) | pIC50 [3, 6] | growth inhibition [2] | pIC50 ([3]; SK-BR-3, read-out: IC50 values of growth inhibition) | growth inhibition [3] | growth inhibition [4] |
| --- | --- | --- | --- | --- | --- | --- | --- |
| Nc1cc(NC(=O)c2cc([N+](=O)[O-])cc([N+](=O)[O-])c2)cc2c1C(=O)NC2=O [RJ-28] | 5.59 | 79% |  | excellent growth inhibition | 5.33 | excellent growth inhibition | excellent growth inhibition |
